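Five compound concentrations were applied to cells in 96-well plates for 48 hours; endpoints were derived by simple linear interpolation of the resulting dose-response curve. GI50 marks 50% less growth. At the TGI there is no net growth.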
Assays:
Assay in all cases: growth of human tumour cells (NCI), 48 h
HCC-2998 colon = test system: HCC-2998 colon
SF-268 CNS = test system: SF-268 CNS
OVCAR-4 ovarian = test system: OVCAR-4 ovarian
IGROV1 ovarian = test system: IGROV1 ovarian
NCI/ADR-RES ovarian = test system: NCI/ADR-RES ovarian
HS 578T breast = test system: HS 578T breast
MCF7 breast = test system: MCF7 breast
PC-3 prostate = test system: PC-3 prostate
HCT-116 colon = test system: HCT-116 colon
LOX IMVI melanoma = test system: LOX IMVI melanoma
SK-MEL-5 melanoma = test system: SK-MEL-5 melanoma
HOP-62 NSCLC = test system: HOP-62 NSCLC
MOLT-4 leukemia = test system: MOLT-4 leukemia
786-0 renal = test system: 786-0 renal
NCI-H226 lung = test system: NCI-H226 lung
U251 CNS = test system: U251 CNS
CAKI-1 renal = test system: CAKI-1 renal
EKVX NSCLC = test system: EKVX NSCLC
NCI-H23 lung = test system: NCI-H23 lung
OVCAR-8 ovarian = test system: OVCAR-8 ovarian
HL-60(TB) leukemia = test system: HL-60(TB) leukemia
CCRF-CEM leukemia = test system: CCRF-CEM leukemia
HOP-92 NSCLC = test system: HOP-92 NSCLC
A498 renal = test system: A498 renal
SW-620 colon = test system: SW-620 colon
A549 NSCLC = test system: A549 NSCLC
UO-31 renal = test system: UO-31 renal
SN12C renal = test system: SN12C renal
MDA-MB-231 breast = test system: MDA-MB-231 breast
UACC-257 melanoma = test system: UACC-257 melanoma
NCI-H522 lung = test system: NCI-H522 lung
OVCAR-5 ovarian = test system: OVCAR-5 ovarian
KM12 colon = test system: KM12 colon
SF-539 CNS = test system: SF-539 CNS
HT29 colon = test system: HT29 colon
SNB-75 CNS = test system: SNB-75 CNS
NCI-H460 lung = test system: NCI-H460 lung
SNB-19 CNS = test system: SNB-19 CNS
SK-MEL-2 melanoma = test system: SK-MEL-2 melanoma
TK-10 renal = test system: TK-10 renal
COLO 205 colon = test system: COLO 205 colon
HCT-15 colon = test system: HCT-15 colon
MALME-3M melanoma = test system: MALME-3M melanoma
SK-MEL-28 melanoma = test system: SK-MEL-28 melanoma
SR leukemia = test system: SR leukemia
SF-295 CNS = test system: SF-295 CNS
DU-145 prostate = test system: DU-145 prostate
M14 melanoma = test system: M14 melanoma
MDA-MB-435 = test system: MDA-MB-435
ACHN renal = test system: ACHN renal
BT-549 breast = test system: BT-549 breast
T-47D breast = test system: T-47D breast
RXF 393 renal = test system: RXF 393 renal
UACC-62 melanoma = test system: UACC-62 melanoma
RPMI-8226 leukemia = test system: RPMI-8226 leukemia
K-562 leukemia = test system: K-562 leukemia
OVCAR-3 ovarian = test system: OVCAR-3 ovarian
SK-OV-3 ovarian = test system: SK-OV-3 ovarian

Cn1c2ccccc2n2c(=O)c(-c3ccc(O)cc3)nnc12
TGI (HCC-2998 colon): > 100 µM | TGI (SF-268 CNS): > 100 µM | TGI (OVCAR-4 ovarian): > 100 µM | TGI (IGROV1 ovarian): > 100 µM | TGI (NCI/ADR-RES ovarian): > 100 µM | TGI (HS 578T breast): > 100 µM | TGI (MCF7 breast): > 100 µM | TGI (PC-3 prostate): > 100 µM | TGI (HCT-116 colon): > 100 µM | TGI (LOX IMVI melanoma): > 100 µM | TGI (SK-MEL-5 melanoma): > 100 µM | TGI (HOP-62 NSCLC): > 100 µM | TGI (MOLT-4 leukemia): > 100 µM | TGI (786-0 renal): > 100 µM | TGI (NCI-H226 lung): > 100 µM | TGI (U251 CNS): 85.8 µM | TGI (CAKI-1 renal): > 100 µM | TGI (EKVX NSCLC): > 100 µM | TGI (NCI-H23 lung): > 100 µM | TGI (OVCAR-8 ovarian): > 100 µM | TGI (HL-60(TB) leukemia): > 100 µM | TGI (CCRF-CEM leukemia): > 100 µM | TGI (HOP-92 NSCLC): > 100 µM | TGI (A498 renal): > 100 µM | TGI (SW-620 colon): > 100 µM | TGI (A549 NSCLC): > 100 µM | TGI (UO-31 renal): > 100 µM | TGI (SN12C renal): > 100 µM | TGI (MDA-MB-231 breast): > 100 µM | TGI (UACC-257 melanoma): > 100 µM | TGI (NCI-H522 lung): > 100 µM | TGI (OVCAR-5 ovarian): > 100 µM | TGI (KM12 colon): > 100 µM | TGI (SF-539 CNS): > 100 µM | TGI (HT29 colon): > 100 µM | TGI (SNB-75 CNS): 75 µM | TGI (NCI-H460 lung): > 100 µM | TGI (SNB-19 CNS): > 100 µM | TGI (SK-MEL-2 melanoma): > 100 µM | TGI (TK-10 renal): > 100 µM | TGI (COLO 205 colon): > 100 µM | TGI (HCT-15 colon): > 100 µM | TGI (MALME-3M melanoma): > 100 µM | TGI (SK-MEL-28 melanoma): > 100 µM | TGI (SR leukemia): > 100000 nM | TGI (SF-295 CNS): > 100 µM | TGI (DU-145 prostate): > 100 µM | TGI (M14 melanoma): > 100 µM | TGI (MDA-MB-435): > 100 µM | TGI (ACHN renal): > 100 µM | TGI (BT-549 breast): > 100 µM | TGI (T-47D breast): > 100 µM

O=C1NC(=NCCc2ccccc2Cl)S/C1=C\c1ccc2ncccc2c1
GI50 (HCC-2998 colon): 6.33 µM | TGI (HCC-2998 colon): > 25 µM | GI50 (SF-268 CNS): 4.68 µM | TGI (SF-268 CNS): > 25 µM | GI50 (OVCAR-4 ovarian): 4.26 µM | TGI (OVCAR-4 ovarian): > 14.9 µM | GI50 (IGROV1 ovarian): 5.75 µM | TGI (IGROV1 ovarian): > 25 µM | GI50 (NCI/ADR-RES ovarian): 7.73 µM | TGI (NCI/ADR-RES ovarian): > 25 µM | GI50 (HS 578T breast): 7.03 µM | TGI (HS 578T breast): > 17 µM | GI50 (MCF7 breast): 1320 nM | TGI (MCF7 breast): > 25 µM | GI50 (PC-3 prostate): 6.26 µM | TGI (PC-3 prostate): > 25 µM | GI50 (HCT-116 colon): 936 nM | TGI (HCT-116 colon): > 25 µM | GI50 (RXF 393 renal): 4.85 µM | TGI (RXF 393 renal): > 25 µM | GI50 (UACC-62 melanoma): 6.49 µM | TGI (UACC-62 melanoma): > 25 µM | GI50 (RPMI-8226 leukemia): 1830 nM | TGI (RPMI-8226 leukemia): > 25 µM | GI50 (LOX IMVI melanoma): 1570 nM | TGI (LOX IMVI melanoma): > 25 µM | GI50 (SK-MEL-5 melanoma): 6.92 µM | TGI (SK-MEL-5 melanoma): 24.6 µM | GI50 (HOP-62 NSCLC): 6.26 µM | TGI (HOP-62 NSCLC): > 25 µM | GI50 (K-562 leukemia): 1100 nM | TGI (K-562 leukemia): > 25 µM | GI50 (OVCAR-3 ovarian): 5.31 µM | TGI (OVCAR-3 ovarian): 19.8 µM | GI50 (MOLT-4 leukemia): 5.4 µM | TGI (MOLT-4 leukemia): 17.2 µM | GI50 (786-0 renal): 7.66 µM | TGI (786-0 renal): > 25 µM | GI50 (NCI-H226 lung): 7.61 µM | TGI (NCI-H226 lung): > 25 µM | GI50 (U251 CNS): 2640 nM | TGI (U251 CNS): > 21.4 µM | GI50 (CAKI-1 renal): 3.3 µM | TGI (CAKI-1 renal): > 14.8 µM | GI50 (NCI-H23 lung): 6.06 µM | TGI (NCI-H23 lung): > 25 µM | GI50 (OVCAR-8 ovarian): 8.16 µM | TGI (OVCAR-8 ovarian): > 25 µM | GI50 (HL-60(TB) leukemia): 2630 nM | TGI (HL-60(TB) leukemia): 10.3 µM | GI50 (CCRF-CEM leukemia): 4.09 µM | TGI (CCRF-CEM leukemia): > 25 µM | GI50 (HOP-92 NSCLC): 4 µM | TGI (HOP-92 NSCLC): 22.2 µM | GI50 (A498 renal): 3.68 µM | TGI (A498 renal): 17.6 µM | GI50 (SW-620 colon): 1090 nM | TGI (SW-620 colon): > 25 µM | GI50 (A549 NSCLC): 5.16 µM | TGI (A549 NSCLC): > 25 µM | GI50 (UO-31 renal): 5.13 µM | TGI (UO-31 renal): > 25 µM | GI50 (SN12C renal): 7.72 µM | TGI (SN12C renal): > 25 µM | GI50 (MDA-MB-231 breast): 10.3 µM | TGI (MDA-MB-231 breast): > 25 µM | GI50 (UACC-257 melanoma): 11.2 µM | TGI (UACC-257 melanoma): > 25 µM | GI50 (NCI-H522 lung): 4.13 µM | TGI (NCI-H522 lung): 12.3 µM | GI50 (OVCAR-5 ovarian): 12.2 µM | TGI (OVCAR-5 ovarian): > 25 µM | GI50 (KM12 colon): 2500 nM | TGI (KM12 colon): > 25 µM | GI50 (SF-539 CNS): 3.13 µM | TGI (SF-539 CNS): 13.2 µM | GI50 (SK-OV-3 ovarian): 5.94 µM | TGI (SK-OV-3 ovarian): > 20.4 µM | GI50 (HT29 colon): 2790 nM | TGI (HT29 colon): > 18.9 µM | GI50 (SNB-75 CNS): 1700 nM | TGI (SNB-75 CNS): > 14.9 µM | GI50 (NCI-H460 lung): 6.34 µM | TGI (NCI-H460 lung): > 25 µM | GI50 (SNB-19 CNS): 7.4 µM | TGI (SNB-19 CNS): > 25 µM | GI50 (SK-MEL-2 melanoma): 5.86 µM | TGI (SK-MEL-2 melanoma): 14 µM | GI50 (TK-10 renal): 3.79 µM | TGI (TK-10 renal): > 20.1 µM | GI50 (COLO 205 colon): 3.98 µM | TGI (COLO 205 colon): > 25 µM | GI50 (HCT-15 colon): 1180 nM | TGI (HCT-15 colon): > 25 µM | GI50 (MALME-3M melanoma): > 21.3 µM | TGI (MALME-3M melanoma): > 25 µM | GI50 (SK-MEL-28 melanoma): 10.7 µM | TGI (SK-MEL-28 melanoma): > 25 µM | GI50 (SR leukemia): 622 nM | TGI (SR leukemia): 2250 nM | GI50 (SF-295 CNS): 2140 nM | TGI (SF-295 CNS): > 11.2 µM | GI50 (DU-145 prostate): 6.9 µM | TGI (DU-145 prostate): > 25 µM | GI50 (M14 melanoma): 6.48 µM | TGI (M14 melanoma): > 25 µM | GI50 (MDA-MB-435): 1450 nM | TGI (MDA-MB-435): 9.81 µM | GI50 (ACHN renal): 6.5 µM | TGI (ACHN renal): > 25 µM | GI50 (BT-549 breast): 4.94 µM | TGI (BT-549 breast): > 22 µM | GI50 (T-47D breast): 7.34 µM | TGI (T-47D breast): > 25 µM

From PubChem BioAssay (NCI)
